{
  "source": "patent US20240279220A1",
  "about": "“INDOLE COMPOUNDS AND METHODS OF USE” (Genzyme Corporation, priority 2021, published 2024)",
  "data": [
    {"test_system": "NBD1/3D", "assay": "Aggregation analysis using differential static light scattering (DSLS), NBD1 thermal stability", "type": "binding, Human", "conditions": "ΔTagg versus DMSO control; compound at 100 μM", "outline": "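Thermal stabilisation reported as ΔTagg, i.e. aggregation temperature relative to averaged DMSO wells. Tagg came from the inflection of differential static light scattering imaged 25–70 °C while NBD1 (0.2 mg/ml, Tris pH 7.6 buffer containing ATP, MgCl2, DTT, glycerol) was ramped 1 °C/min.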", "values": [
      {"smiles": "Cc1c(Oc2ccc(F)c(-c3ncc(C(C)c4cccc([C@@H]5CC5C(=O)O)c4F)[nH]3)c2)c(F)cc2[nH]ccc12", "note": "(single isomer, unassigned) [Example 138B, cis-2-(2-fluoro-3-(1-(2-(2-fluoro-5-((6-fluoro-4-methyl-1H-indol-5-yl)oxy)phenyl)-1H-imidazol-5-yl)ethyl)phenyl)cyclopropane-1-carboxylic acid]", "DSLS NBD1/3D Human Stability delta-T (° C.) @ 100 (μM)": "C (C: ≤5° C.)"},
      {"smiles": "Cc1c(Oc2ccc(F)c(-c3nc(Cc4cccc(CCC(=O)O)c4)nn3C)c2)c(F)cc2[nH]ccc12", "note": "[Example 242, 3-(3-((5-(2-Fluoro-5-((6-fluoro-4-methyl-1H-indol-5-yl)oxy)phenyl)-1-methyl-1H-1,2,4-triazol-3-yl)methyl)phenyl)propanoic acid]", "DSLS NBD1/3D Human Stability delta-T (° C.) @ 100 (μM)": "B (B: 5-10° C.)"},
      {"smiles": "CC(C)S(=O)(=O)c1c(Oc2ccc(F)c(-c3nc(C(C)(O)c4cccc(CCC(=O)O)c4)c[nH]3)c2)c(F)cc2[nH]ccc12", "note": "(stereo not shown) [Example 29, 3-(3-(1-(2-(2-fluoro-5-((6-fluoro-4-(isopropylsulfonyl)-1H-indol-5-yl)oxy)phenyl)-1H-imidazol-4-yl)-1-hydroxyethyl)phenyl)propanoic acid]", "DSLS NBD1/3D Human Stability delta-T (° C.) @ 100 (μM)": "B (B: 5-10° C.)"},
      {"smiles": "C[C@@H](O)C(=O)N1Cc2ccc(C(C)(O)c3cnc(-c4cccc(Oc5c(F)cc6[nH]ccc6c5F)c4)[nH]3)cc2C1", "note": "(stereo partly drawn) [Example 219, (2R)-1-(5-(1-(2-(3-((4,6-Difluoro-1H-indol-5-yl)oxy)phenyl)-1H-imidazol-5-yl)-1-hydroxyethyl)isoindolin-2-yl)-2-hydroxypropan-1-one]", "DSLS NBD1/3D Human Stability delta-T (° C.) @ 100 (μM)": "C (C: ≤5° C.)"},
      {"smiles": "CC(O)(c1cccc(CCC(=O)O)c1)c1cnc(-c2cc(Oc3c(F)cc4[nH]ccc4c3CCF)ccc2F)[nH]1", "note": "(stereo not shown) [Example 200, 3-(3-(1-(2-(2-fluoro-5-((6-fluoro-4-(2-fluoroethyl)-1H-indol-5-yl)oxy)phenyl)-1H-imidazol-5-yl)-1-hydroxyethyl)phenyl) propanoic acid]", "DSLS NBD1/3D Human Stability delta-T (° C.) @ 100 (μM)": "A (A: T ≥ 10° C.)"},
      {"smiles": "C[S+]([O-])c1c(Oc2cccc(-c3nc(Cc4cccc(CCC(=O)O)c4)cs3)c2)c(F)cc2[nH]ccc12", "note": "(stereo not shown) [Example 36, 3-(3-((2-(3-((6-Fluoro-4-(methylsulfinyl)-1H-indol-5-yl)oxy)phenyl)thiazol-4-yl)methyl)phenyl)propanoic acid]", "DSLS NBD1/3D Human Stability delta-T (° C.) @ 100 (μM)": "B (B: 5-10° C.)"},
      {"smiles": "Cc1c(Oc2ccc(F)c(-c3ncc(C4(c5cccc(CCC(=O)O)c5)CCCC4)[nH]3)c2)c(F)cc2[nH]ccc12", "note": "[Example 146, 3-(3-(1-(2-(2-fluoro-5-((6-fluoro-4-methyl-1H-indol-5-yl)oxy)phenyl)-1H-imidazol-5-yl)cyclopentyl)phenyl)propanoic acid]", "DSLS NBD1/3D Human Stability delta-T (° C.) @ 100 (μM)": "B (B: 5-10° C.)"},
      {"smiles": "CNC(=O)c1c(Oc2cccc(-c3ccn(Cc4cccc(/C=C/C(=O)O)c4)n3)c2)ccc2[nH]ccc12", "note": "[Example 15, (E)-3-(3-((3-(3-((4-(Methylcarbamoyl)-1H-indol-5-yl)oxy)phenyl)-1H-pyrazol-1-yl)methyl)phenyl)acrylic acid]", "DSLS NBD1/3D Human Stability delta-T (° C.) @ 100 (μM)": "B (B: 5-10° C.)"},
      {"smiles": "CC(O)(c1cccc(CCC(=O)O)c1)c1csc(-c2cccc(Oc3c(F)cc4[nH]ccc4c3P(C)(C)=O)c2)n1", "note": "(stereo not shown) [Example 98, 3-(3-(1-(2-(3-((4-(Dimethylphosphoryl)-6-fluoro-1H-indol-5-yl)oxy)phenyl)thiazol-4-yl)-1-hydroxyethyl)phenyl)propanoic acid]", "DSLS NBD1/3D Human Stability delta-T (° C.) @ 100 (μM)": "B (B: 5-10° C.)"},
      {"smiles": "CC(CO)(c1cccc(CCC(=O)O)c1)c1cnc(-c2cc(Oc3c(F)cc4[nH]ccc4c3S(C)(=O)=O)ccc2F)[nH]1", "note": "(stereo not shown) [Example 68, 3-(3-(2-(2-(2-Fluoro-5-((6-fluoro-4-(methylsulfonyl)-1H-indol-5-yl)oxy)phenyl)-1H-imidazol-5-yl)-1-hydroxypropan-2-yl)phenyl)propanoic acid]", "DSLS NBD1/3D Human Stability delta-T (° C.) @ 100 (μM)": "A (A: T ≥ 10° C.)"},
      {"smiles": "Cc1c(Oc2ccc(F)c(-c3nc(C4(c5cccc(CCC(=O)O)c5)CCCCC4)c[nH]3)c2)c(F)cc2[nH]ccc12", "note": "[Example 147, 3-(3-(1-(2-(2-fluoro-5-((6-fluoro-4-methyl-1H-indol-5-yl)oxy)phenyl)-1H-imidazol-4-yl)cyclohexyl)phenyl)propanoic acid]", "DSLS NBD1/3D Human Stability delta-T (° C.) @ 100 (μM)": "B (B: 5-10° C.)"},
      {"smiles": "O=C(O)CCc1cc(F)cc(Cc2cnc(-c3cc(Oc4c(F)cc5[nH]ccc5c4CC(F)(F)F)ccc3F)[nH]2)c1", "note": "[Example 113, 3-(3-fluoro-5-((2-(2-fluoro-5-((6-fluoro-4-(2,2,2-trifluoroethyl)-1H-indol-5-yl)oxy)phenyl)-1H-imidazol-5-yl)methyl)phenyl)propanoic acid]", "DSLS NBD1/3D Human Stability delta-T (° C.) @ 100 (μM)": "B (B: 5-10° C.)"},
      {"smiles": "CC(c1cccc(CCC(=O)O)c1)n1ccc(-c2cc(Oc3c(F)cc4[nH]ccc4c3S(C)(=O)=O)ccc2F)n1", "note": "(stereo not shown) [Example 38, 3-(3-(1-(3-(2-Fluoro-5-((6-fluoro-4-(methylsulfonyl)-1H-indol-5-yl)oxy)phenyl)-1H-pyrazol-1-yl)ethyl)phenyl)propanoic acid]", "DSLS NBD1/3D Human Stability delta-T (° C.) @ 100 (μM)": "B (B: 5-10° C.)"},
      {"smiles": "CC(Cc1cccc([C@H](O)c2cnc(-c3cccc(Oc4c(F)cc5[nH]ccc5c4F)c3)[nH]2)c1)C(=O)O", "note": "(stereo partly drawn) [Example 181, 3-(3-((S)-(2-(3-((4,6-Difluoro-1H-indol-5-yl)oxy)phenyl)-1H-imidazol-5-yl)(hydroxy)methyl)phenyl)-2-methylpropanoic acid]", "DSLS NBD1/3D Human Stability delta-T (° C.) @ 100 (μM)": "B (B: 5-10° C.)"},
      {"smiles": "CCCCC(O)(c1cccc(CCC(=O)O)c1)c1c[nH]c(-c2cc(Oc3c(F)cc4[nH]ccc4c3C)ccc2F)n1", "note": "(stereo not shown) [Example 226, 3-(3-(1-(2-(2-fluoro-5-((6-fluoro-4-methyl-1H-indol-5-yl)oxy)phenyl)-1H-imidazol-4-yl)-1-hydroxypentyl)phenyl) propanoic acid]", "DSLS NBD1/3D Human Stability delta-T (° C.) @ 100 (μM)": "B (B: 5-10° C.)"},
      {"smiles": "COC(=O)C(F)Cc1cccc(C(O)c2cnc(-c3cccc(Oc4ccc5[nH]ccc5c4C)c3)[nH]2)c1", "note": "(stereo not shown) [Example 173, Methyl 2-fluoro-3-(3-(hydroxy(2-(3-((4-methyl-1H-indol-5-yl)oxy)phenyl)-1H-imidazol-5-yl)methyl)phenyl)propanoate]", "DSLS NBD1/3D Human Stability delta-T (° C.) @ 100 (μM)": "B (B: 5-10° C.)"},
      {"smiles": "Cc1c(Oc2ccc(F)c(-c3nnc(Cc4ccc5[nH]c(C(=O)O)cc5c4)[nH]3)c2)c(F)cc2[nH]ccc12", "note": "[Example 246, 5-((5-(2-fluoro-5-((6-fluoro-4-methyl-1H-indol-5-yl)oxy)phenyl)-4H-1,2,4-triazol-3-yl)methyl)-1H-indole-2-carboxylic acid]", "DSLS NBD1/3D Human Stability delta-T (° C.) @ 100 (μM)": "B (B: 5-10° C.)"},
      {"smiles": "O=C(O)CCc1cccc(Cc2nnc(-c3cccc(Oc4c(F)cc5[nH]ccc5c4[S+]([O-])C(F)F)c3)[nH]2)c1", "note": "(stereo not shown) [Example 25, 3-(3-((5-(3-((4-((Difluoromethyl)sulfinyl)-6-fluoro-1H-indol-5-yl)oxy)phenyl)-4H-1,2,4-triazol-3-yl)methyl)phenyl)propanoic acid]", "DSLS NBD1/3D Human Stability delta-T (° C.) @ 100 (μM)": "C (C: ≤5° C.)"},
      {"smiles": "CC(C)(c1cccc(CCC(=O)O)c1)c1cnc(-c2cc(Oc3c(F)cc4[nH]ccc4c3F)ccc2F)[nH]1", "note": "[Example 145, 3-(3-(2-(2-(5-((4,6-difluoro-1H-indol-5-yl)oxy)-2-fluorophenyl)-1H-imidazol-5-yl)propan-2-yl)phenyl)propanoic acid]", "DSLS NBD1/3D Human Stability delta-T (° C.) @ 100 (μM)": "B (B: 5-10° C.)"}
    ]}
  ]
}
